Measurements from paper PMC10065799, “High-throughput profiling of sequence recognition by tyrosine kinases and SH2 domains using bacterial peptide display” (eLife, 2023).

Legend:
Experiment in all cases: pTyr-Var library bacterial peptide display kinase screen (enrichment scores)
EPHB1 kinase domain = format: biochemical, human; conditions: for Screen: sheet EPHB1, effect of the variant peptide relative to its reference peptide in the pTyr-Var library screen (enrichment scores); for Screen (variant relative to reference peptide, measured in the pTyr-Var library screen): sheet "EPHB1", variant seq vs reference seq, bacterial peptide display enrichment
c-Src kinase domain = c-Src kinase domain (Homo sapiens, UniProt P12931); format: biochemical; conditions: sheet "Src";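 further: log2 fold change in enrichment of variant over reference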
Fer kinase domain = format: biochemical, mouse; conditions: sheet "Fer"
EPHB2 kinase domain = format: biochemical, human; conditions: sheet EPHB2
c-Abl kinase domain = molecular target: T1, c-Abl kinase domain (Mus musculus, UniProt P00520); format: biochemical;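 further: log2 fold change in enrichment of variant over reference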
T1 sequence (P00520 242-493 limits assumed): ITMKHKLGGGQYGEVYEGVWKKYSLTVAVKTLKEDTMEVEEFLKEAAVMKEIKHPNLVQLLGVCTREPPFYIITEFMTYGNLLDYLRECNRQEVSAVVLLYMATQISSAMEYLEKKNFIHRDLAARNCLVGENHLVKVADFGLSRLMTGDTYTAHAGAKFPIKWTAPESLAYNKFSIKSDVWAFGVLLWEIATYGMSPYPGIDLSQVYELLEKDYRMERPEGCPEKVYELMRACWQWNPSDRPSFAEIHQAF

[1] = variant peptide versus its reference peptide in the pTyr-Var library screen
[2] = value of the variant peptide against its reference peptide in the pTyr-Var library screen with Fer
[3] = effect of variant peptide relative to its reference peptide in the pTyr-Var library screen (enrichment scores)
[4] = effect of the variant peptide relative to its reference peptide in the pTyr-Var library screen
[5] = variant peptide relative to its reference peptide, pTyr-Var library screen enrichment
[6] = effect of the variant relative to its reference peptide in the pTyr-Var library screen
[7] = sheet "Abl", effect of variant peptide relative to its reference peptide in pTyr-Var library screen (enrichment)

Screen (Fer kinase domain; [5])	Sequence	Screen (EPHB1 kinase domain)	Screen (c-Src kinase domain; [1])	Screen (Fer kinase domain; [2])	Screen (EPHB2 kinase domain; [3])	Screen (c-Src kinase domain; [4])	Screen (variant relative to reference peptide, measured in the pTyr-Var library screen) (EPHB1 kinase domain)	Screen (EPHB2 kinase domain; [6])	Screen (c-Abl kinase domain; [7])	Screen (c-Abl kinase domain; fig5-data2, sheet "Abl", Screen for the variant/reference peptide pair, pTyr-Var library)
–	EDEGLYTVRVP [MYOM3_Y343_M344T]	-1.202	-0.00676	-0.4796	-1.314	–	–	–	–	–
–	QNWELYSEGLG [CNKSR1_Y665_R662W]	3.643	–	–	3.538	2.202	–	–	–	–
–	DLNATYCTIQG [U2SURP_Y634_R635C]	–	2.996	–	–	–	3.639	3.025	–	–
–	GEHSIYSTVNN [CD55_Y266_C267S]	0.557	–	1.521	1.232	0.6713	–	–	–	–
–	RRIHSYRSHLW [VHL_Y112_G114S]	–	-3.054	–	–	–	-1.453	-0.1154	-2.663	–
–	WAFNLYDINKF [KCNIP3_Y174_D179Y_YF]	0.7978	–	1.417	0.891	-0.1467	–	–	–	–
–	DCVRMYELVHR [GLE1_Y135_G130D]	-0.05786	–	0.7012	-0.0869	–	–	–	–	–
–	HDRGNYVQLNM [RECQL4_Y353_R355Q]	1.895	–	–	1.444	–	–	–	–	–
1.596	RGESFYQDTMN [RARS_Y338_R341T]	2.46	–	–	1.971	–	–	–	–	–
0.2984	KSIQLYDTPFE [SHB_Y297_G293S_YF]	–	–	–	0.4609	–	0.5631	–	-1.035	–
–	INPIIYAFVGG [CCR5_Y297_E302G]	0.07603	–	-0.02742	0.0201	0.06385	–	–	–	–
–	LQIPMYEVQWK [KIT_Y553_K550I]	3.846	–	1.505	4.801	1.435	–	–	–	–
–	HNLDFYKQTTN [FGFR3_Y648_K650Q_YF]	-1.421	–	-2.104	-1.53	-2.522	–	–	–	–
–	QNAGDYFDLFG [PTPN11_Y62_T59A_YF]	-0.1063	-0.3977	–	-0.3726	–	–	–	–	–
–	EEVPLYESATT [DCC_Y809_G805E]	-0.9244	–	-0.3858	-0.8416	–	–	–	–	–
–	HLEKKYVHRDS [CSF1R_Y708_R710H]	-1.586	–	-0.7741	-2.097	-3.671	–	–	–	–
–	MKVPLYETPAG [PGM5_Y358_V357L]	0.8032	-1.534	0.5188	0.6636	–	–	–	–	–
–	LLILEYAKFGS [RET_Y806_V804L_YF]	-0.7851	–	–	-0.9388	–	–	–	–	–
–	AVISVYDLVAF [PSEN1_Y256_V261F]	0.6578	0.3764	0.2851	0.9519	–	–	–	–	–
–	LSIQCYLRASD [HMGCS2_Y262_L266S]	1.205	–	1.097	0.8903	–	–	–	–	–
–	FFSSEYHCVGG [CTSC_Y345_Y347C_YF]	-0.4883	–	–	-0.8292	-0.4888	–	–	–	0.5786

Sequence	Screen (Fer kinase domain; [5])	Screen (EPHB1 kinase domain)	Screen (c-Src kinase domain; [1])	Screen (Fer kinase domain; [2])	Screen (EPHB2 kinase domain; [3])	Screen (c-Src kinase domain; [4])	Screen (variant relative to reference peptide, measured in the pTyr-Var library screen) (EPHB1 kinase domain)	Screen (EPHB2 kinase domain; [6])	Screen (c-Abl kinase domain; [7])	Screen (c-Abl kinase domain; fig5-data2, sheet "Abl", Screen for the variant/reference peptide pair, pTyr-Var library)
QRALLYEDTLF [UNC13D_Y56_A59T_YF]	0.1557	–	0.3849	–	–	–	0.5027	0.5663	–	–
